Measurements taken from paper PMC9059126, “Structure-Based Design of a Novel Class of Autotaxin Inhibitors Based on Endogenous Allosteric Modulators” (Journal of Medicinal Chemistry, 2022).

Experiments:
ATX [1] = target: T1, ATX (Rattus norvegicus, UniProt Q64610); experiment: Choline oxidase-coupled choline-release assay of LPC hydrolysis by ATX; conditions: for inhibition at 100 µM: read-out: %Inhibition at 100 μM; for IC50 / Residual Activity (%): 20 nM ATX
[2] = tested on: LPA1-HA-expressing HeLa-Flp-In cells; experiment: Confocal microscopy for LPA1 internalization; type: cell-based, Human; conditions: 1 μM 18:1 LPC, 20 nM ATX, 15 min
Description: Human LPA1 cDNA was amplified by PCR to remove its stop codon and add the restriction sites for BamHI and XhoI, after which it was subcloned in an in-house produced pDNA5.1-HA vector. 0.2 μg of the resulting vector and 1.8 μg of pOG44 Flp-Recombinase Expression Vector (Invitrogen) were incubated with 6 μL of Fugene6 (Invitrogen) in 200 μL of OptiMEM (Gibco) for 30 min, after which the mix was added to previously produced HeLa-Flp-In cells.[43] Their medium was refreshed 24 h later, and selection with 1 μg/mL puromycin was started and maintained with resistant cells.
Serum-starved LPA1-HA-expressing HeLa-Flp-In cells cultured on 24 mm (#1,5) were treated with 1 μM LPC and 20 nM ATX in the presence or absence of 22 or 23 for 15 min in DMEM containing 0.05% fatty acid-free BSA. Subsequently, coverslips were washed and fixed with 4% PFA, permeabilized with 0.1% Triton X-100, and blocked with 2% BSA for 1 h. Incubation with anti-HA antibody (3F10 from Roche Diagnostics; 1:200) was done for 1 h, followed by incubation with donkey anti-rat Alexa Fluor 488-conjugated antibody (A-21208 from Invitrogen; 1:200) for 1 h at room temperature. For confocal microscopy, cells were washed with PBS, mounted with Immnuno-MountTM (Thermo Scientific), visualized on a LEICA TCS-SP5 confocal microscope (63× objective), and analyzed using ImageJ software.

BJeH fibroblasts = experiment: AKT and ERK phosphorylation by western blotting; type: cell-based; conditions: Homo sapiens, 0.25 h, 15 min
Description: 100,000 BJeH cells were seeded in 12-well tissue culture plates and allowed to grow for 24 h in DMEM (GIBCO, Life Technologies) containing 10% FCS (Thermo Scientific) and 100 U mL^–1 streptomycin/penicillin (GIBCO, Life Technologies). Next, they were washed twice with phosphate-buffered saline (PBS) and serum-starved O/N. ATX 20 nM was incubated with inhibitors for 30 min in a serum-free medium containing 0.05% (w/v) fatty acid-free BSA (total volume 1 mL). The medium from the 12-well plates was removed and replaced with 1 mL of the ATX–inhibitor mixture. Cells were stimulated for 15 min, the medium was removed, and plates were immediately frozen on dry ice and stored at −80 °C. For western blotting, cells were washed with cold PBS; lysed in RIPA buffer; supplemented with protease inhibitors (Pierce), 20 mM NaF and 1 mM orthovanadate; and spun down. The protein concentration was measured using a BCA protein assay kit (Pierce), and LDS sample buffer (NuPAGE, Invitrogen) and 1 mM dithiothreitol were added to the lysate. 20 μg of the total protein was loaded on sodium dodecyl sulfate–polyacrylamide gel electrophoresis pre-cast gradient gels (4–12% Nu-Page Bis-Tris, Invitrogen), followed by transfer to a nitrocellulose membrane. Non-specific protein binding was blocked by 5% BSA in PBS-Tween (0.1%); the primary antibodies were phospho-Akt (Ser473), catalogue number: D93, dilution: 1:1,000; phospho-ERK1/2 (Thr202/Tyr204), catalogue number: D13.14.4E, dilution: 1:2,000, from Cell Signaling Technology. They were incubated O/N at 4 °C in PBS–Tween with 5% BSA, containing 0.1% NaN3. Blots were then incubated for 1 h at room temperature with monoclonal anti-β-actin antibody, clone AC-15, dilution: 1:10,000, from Sigma, which was dissolved in PBS–Tween with 5% skimmed milk containing 0.1% NaN3. HRP-conjugated secondary antibodies [goat anti-mouse (Bio-Rad), catalogue number: 1721011; goat anti-rabbit (Pierce), catalogue number: 1858415] were incubated for 1 h at room temperature in PBS–Tween with 2.5% BSA and developed using an ECL Western blot reagent.

ATX [3] = target: T1, ATX; experiment: Mechanistic studies: mode of inhibition and Ki from LPC titration; type: biochemical; set-up: made in house
Description: The biochemical studies of ATX lysoPLD activity were performed with ATX. Activity was measured by a coupled reaction with 1 U mL^–1 choline oxidase and 2 U mL^–1 horseradish peroxidase (HRP) and 2 mM homovanillic acid (HVA) (all from Sigma-Aldrich). For the assays, 14:0, 16:0, 18:1, and 20:0 LPC (Avanti Polar Lipids Inc.) were incubated with 20 nM ATX, reaching a final volume of 100 μL of the buffer, which contained 50 mM Tris, 0.01%, 50 mM CaCl2, Triton X-100, pH 7.4. Steady-state choline release was measured at 37 °C by HVA fluorescence at λex/λem = 320/460 nm in Corning 96- or 384-well OptiPlate (Sigma-Aldrich) and with a Pherastar plate reader (BMG Labtech). […] The resulting fluorescence intensity signal over time was used to model all inhibitor concentrations simultaneously using the following formula, where vmax and vmin were fitted for the minimum and maximum relative velocities, respectively, and ci corresponds to the inhibitor concentration for each assay[20] [drawing 1] 1
To statistically determine the chance of each type of inhibition, we calculated the α value in the partial mixed inhibition model (eq 5), where Part defines the partiality of the inhibition, and α > 1 or α = 1 correspond to competitive and non-competitive inhibition modes, respectively. Last, we utilized Akaike’s Information Criterion[42] to assess the significance of the analysis [drawing 5] 5

ATX [4] = target: T1, ATX; experiment: Competition with LPA allostery (LPA-mediated activation of ATX); type: biochemical; set-up: made in house; conditions: inhibitor at concentrations close to or lower than IC50; 150 μM 18:1 LPC, 18:1 LPA, 20 nM ATX
Description: The activation assays using LPA were performed in a similar way to those done for the inhibitors. In this case, LPA was dissolved in ethanol/H20 (1:1) and 0.01% TX-100 and was added to the reaction buffer. The presence of ethanol was taken into account, and controls in the absence of ATX and/or LPC were employed to correct the kinetic data. ATX was incubated for 30 min with different concentrations of inhibitors and subsequently added to the reaction buffer containing 150 μM 18:1 LPC and different starting concentrations of 18:1 LPA. The slopes were calculated from at least 60 min after the addition of ATX. The percentage of LPA-driven activation was normalized to ATX in the absence of LPA and inhibitors, which represented 100% activity. Last, the activation constant or AC50 was obtained from the following equation [drawing 2] 2

| SMILES | IC50 (ATX [1]; LPC hydrolysis assay) | Residual Activity (%) (ATX [1]; LPC hydrolysis assay) | other results |
| --- | --- | --- | --- |
| COc1ccc([B-](F)(F)F)cc1 [Compound 6] | – | – | inhibition at 100 µM (ATX [1]): 57% |
| COc1ccc(B(O)O)cc1 [Compound 7] | – | – | inhibition at 100 µM (ATX [1]): 37% |
| C[C@H](CCC(=O)NCCCOc1ccc(S(N)(=O)=O)cc1)[C@H]1CC[C@H]2C3[C@@H](O)C[C@@H]4C[C@H](O)CC[C@]4(C)[C@H]3CC[C@]12C (stereo partly drawn) [Compound 10] | 400 nM | 75% | – |
| C[C@H](CCC(=O)NCCOc1ccc(S(N)(=O)=O)cc1)[C@H]1CC[C@H]2C3[C@@H](O)C[C@@H]4C[C@H](O)CC[C@]4(C)[C@H]3CC[C@]12C (stereo partly drawn) [Compound 11] | > 10000 nM | 31% | – |
| C[C@H](CCC(=O)NCCCCOc1ccc(S(N)(=O)=O)cc1)[C@H]1CC[C@H]2C3[C@@H](O)C[C@@H]4C[C@H](O)CC[C@]4(C)[C@H]3CC[C@]12C (stereo partly drawn) [Compound 12] | > 10000 nM | 66% | – |
| C[C@H](CCC(=O)NCCOc1cccc(B2OC(C)(C)C(C)(C)O2)c1)[C@H]1CC[C@H]2C3[C@@H](O)C[C@@H]4C[C@H](O)CC[C@]4(C)[C@H]3CC[C@]12C (stereo partly drawn) [Compound 13] | 14000 nM | 14.7% | – |
| C[C@H](CCC(=O)NCCOc1ccc(B2OC(C)(C)C(C)(C)O2)cc1)[C@H]1CC[C@H]2C3[C@@H](O)C[C@@H]4C[C@H](O)CC[C@]4(C)[C@H]3CC[C@]12C (stereo partly drawn) [Compound 14] | 1500 nM | 1.4% | fold increase in potency over meta-substituted pinacol boronate 13 (ATX [1]; ethyl-linked, para against meta): 10 fold |
| C[C@H](CCC(=O)NCCCOc1cccc(B2OC(C)(C)C(C)(C)O2)c1)[C@H]1CC[C@H]2C3[C@@H](O)C[C@@H]4C[C@H](O)CC[C@]4(C)[C@H]3CC[C@]12C (stereo partly drawn) [Compound 15] | 150 nM | 1.7% | – |
| C[C@H](CCC(=O)NCCCOc1ccc(B2OC(C)(C)C(C)(C)O2)cc1)[C@H]1CC[C@H]2C3[C@@H](O)C[C@@H]4C[C@H](O)CC[C@]4(C)[C@H]3CC[C@]12C (stereo partly drawn) [Compound 16] | 70 nM | 0.3% | – |
| C[C@H](CCC(=O)NCCCOc1ccc([B-](F)(F)F)cc1)[C@H]1CC[C@H]2C3[C@@H](O)C[C@@H]4C[C@H](O)CC[C@]4(C)[C@H]3CC[C@]12C.[Na+] (stereo partly drawn) [Compound 17] | 70 nM | 1.1% | – |
| C[C@H](CCC(=O)NCCCOc1ccc(B(O)O)cc1)[C@H]1CC[C@H]2C3[C@@H](O)C[C@@H]4C[C@H](O)CC[C@]4(C)[C@H]3CC[C@]12C (stereo partly drawn) [Compound 18] | 50 nM | 0.6% | – |
| C[C@H](CCC(=O)N1CCC(Oc2ccc(B3OC(C)(C)C(C)(C)O3)cc2)CC1)[C@H]1CC[C@H]2C3[C@@H](O)C[C@@H]4C[C@H](O)CC[C@]4(C)[C@H]3CC[C@]12C (stereo partly drawn) [Compound 19] | 80 nM | 0% | – |
| C[C@H](CCC(=O)N1CC[C@@H](Oc2ccc(B3OC(C)(C)C(C)(C)O3)cc2)C1)[C@H]1CC[C@H]2C3[C@@H](O)C[C@@H]4C[C@H](O)CC[C@]4(C)[C@H]3CC[C@]12C (stereo partly drawn) [Compound 20] | 210 nM | 8% | – |
| C[C@H](CCC(=O)N1CC[C@H](Oc2ccc(B3OC(C)(C)C(C)(C)O3)cc2)C1)[C@H]1CC[C@H]2C3[C@@H](O)C[C@@H]4C[C@H](O)CC[C@]4(C)[C@H]3CC[C@]12C (stereo partly drawn) [Compound 21] | 200 nM | 10% | – |
| C[C@H](CCC(=O)N1CCC(Oc2ccc([B-](F)(F)F)cc2)CC1)[C@H]1CC[C@H]2C3[C@@H](O)C[C@@H]4C[C@H](O)CC[C@]4(C)[C@H]3CC[C@]12C.[K+] (stereo partly drawn) [Compound 22] | 50 nM | 0% | decrease of LPA1 internalization [2]: approximately 75%; EC50 (BJeH fibroblasts; BJeH cells, 20 nM ATX, 1 μM 18:1 LPC, read-out: EC50 (P-AKT and P-ERK levels)): ~100 nM; Emax (BJeH fibroblasts; BJeH, compared to uninhibited ATX incubated with LPC, read-out: reduction of maximal effective cell response (P-AKT and P-ERK)): ~60%; percentage of competitive versus non-competitive inhibition (ATX [3]; Akaike's informative criteria): 99%; mode of inhibition (ATX [3]; LPC hydrolysis): competitive; Ki (ATX [3]; LPC titration at increasing inhibitor concentrations, Michaelis-Menten nonlinear regression): 24 ± 4 nM; α (partial mixed inhibition model) (ATX [3]; α > 1 competitive, α = 1 non-competitive): 9.7; LPA-mediated activation of ATX activity (ATX [4]): dose-dependent decrease; IC50 (ATX [1]; 14:0 LPC, 150 μM LPC): 84 nM; Residual Activity (%) (ATX [1]; 14:0 LPC, 150 μM LPC): 1%; IC50 (ATX [1]; 16:0 LPC, 150 μM LPC): 72 nM; Residual Activity (%) (ATX [1]; 16:0 LPC, 150 μM LPC): 12%; IC50 (ATX [1]; 18:1 LPC, 150 μM LPC): 45 nM; Residual Activity (%) (ATX [1]; 18:1 LPC, 150 μM LPC): 5%; IC50 (ATX [1]; 20:0 LPC, 150 μM LPC): 32 nM; Residual Activity (%) (ATX [1]; 20:0 LPC, 150 μM LPC, % of catalytic rate of inhibitor-free control): 49% |
